The source of these data is publication PMC5012625 (International Journal of Nanomedicine, 2016).

Data set [1] can be described thus: Pharmacokinetic study in rats. In kind it is in vivo. To be noted: female, Sprague Dawley, rat, plasma.
A short description of data set [2]: Particle size and surface charge by dynamic light scattering. It is filed as physicochemical. To be noted: dynamic light scattering analyzer, Nano ZS, mean ± SD.

As for `CC[C@H](C)[C@H](NC(=O)[C@H](CCC(=O)O)NC(=O)[C@H](CO)NC(=O)[C@@H](NC(=O)[C@@H](N)CO)C(C)C)C(=O)N[C@@H](CCC(N)=O)C(=O)N[C@@H](CC(C)C)C(=O)N[C@@H](CCSC)C(=O)N[C@@H](Cc1cnc[nH]1)C(=O)N[C@@H](CC(N)=O)C(=O)N[C@@H](CC(C)C)C(=O)NCC(=O)N[C@@H](CCCCN)C(=O)N[C@@H](Cc1cnc[nH]1)C(=O)N[C@@H](CC(C)C)C(=O)N[C@@H](CC(N)=O)C(=O)N[C@@H](CO)C(=O)N[C@@H](CCSC)C(=O)N[C@@H](CCC(=O)O)C(=O)N[C@@H](CCCN=C(N)N)C(=O)N[C@H](C(=O)N[C@@H](CCC(=O)O)C(=O)N[C@@H](Cc1c[nH]c2ccccc12)C(=O)N[C@@H](CC(C)C)C(=O)N[C@@H](CCCN=C(N)N)C(=O)N[C@@H](CCCCN)C(=O)N[C@@H](CCCCN)C(=O)N[C@@H](CC(C)C)C(=O)N[C@@H](CCC(N)=O)C(=O)N[C@@H](CC(=O)O)C(=O)N[C@H](C(=O)N[C@@H](Cc1cnc[nH]1)C(=O)N[C@@H](CC(N)=O)C(=O)N[C@@H](Cc1ccccc1)C(=O)O)C(C)C)C(C)C` [rhPTH (1-34)], in data set [1] (0.1 mg kg^−1), the AUC(0-inf) was 0.0448 ng·h/mL, the AUC(0-t) is 0.0309 ng·h/mL, the concentration peaked (Cmax) at 0.0392 ± 0.0198 ng/mL and the Tmax was 30 min. In addition, the F rel in data set [1] (0.1 mg/kg) came to 1.06 ± 0.85%. For the same compound, in data set [1] (sc, 0.02 mg kg^−1), the AUC(0-inf) was 0.603 ng·h/mL, the AUC(0-t) was 0.585 ng·h/mL, the Cmax worked out at 0.711 ± 0.0978 ng/mL and the Tmax is 15 min.
In data set [2], “lysine-linked deoxycholic acid [LysDOCA]” showed a Zeta potential of 6.27±1.29.

A word on the AUC(0-inf): it is total exposure, with the tail of the curve extrapolated. A high value points to more exposure. One may read the AUC(0-t) as the area under the concentration-time curve up to a stated or last time point. One may read the Cmax as the peak of the concentration-time curve. By Tmax is commonly meant the time at which the peak concentration occurs.
